Assay results reported in paper PMC8333062, “Chemical tools for epichaperome-mediated interactome dysfunctions of the central nervous system” (Nature Communications, 2021).

How the values were obtained:
Assay in all cases: scanEDGE off-target screen
Type in all cases: binding
97 kinases [1] = target: T1, 97 kinases (Homo sapiens, UniProt O00444); conditions: read-out: %Ctrl PLK4
T1 construct: purchased Ambit Biosciences (scanEDGE / KINOMEscan) scanEDGE 97 kinase panel; host or cells: T7 phage in E. coli BL21-derived host; remaining kinases in HEK-293 cells

97 kinases [2] = target: T2, 97 kinases (Homo sapiens, UniProt O15075); conditions: read-out: %Ctrl DCAMKL1
T2 construct: purchased Ambit Biosciences (scanEDGE / KINOMEscan) scanEDGE 97 kinase panel; host or cells: T7 phage in E. coli BL21-derived host; remaining kinases in HEK-293 cells

97 kinases [3] = target: T3, 97 kinases (Homo sapiens, UniProt O15530); conditions: read-out: %Ctrl PDPK1
T3 construct: purchased Ambit Biosciences (scanEDGE / KINOMEscan) scanEDGE 97 kinase panel; host or cells: T7 phage in E. coli BL21-derived host; remaining kinases in HEK-293 cells

97 kinases [4] = target: T4, 97 kinases (Homo sapiens, UniProt O60674); conditions: read-out: %Ctrl JAK2(JH1domain-catalytic)
T4 construct: purchased Ambit Biosciences (scanEDGE / KINOMEscan) scanEDGE 97 kinase panel; host or cells: T7 phage in E. coli BL21-derived host; remaining kinases in HEK-293 cells

97 kinases [5] = target: T5, 97 kinases (Homo sapiens, UniProt O75116); conditions: read-out: %Ctrl ROCK2
T5 construct: purchased Ambit Biosciences (scanEDGE / KINOMEscan) scanEDGE 97 kinase panel; host or cells: T7 phage in E. coli BL21-derived host; remaining kinases in HEK-293 cells
T5 sequence (O75116 whole entry): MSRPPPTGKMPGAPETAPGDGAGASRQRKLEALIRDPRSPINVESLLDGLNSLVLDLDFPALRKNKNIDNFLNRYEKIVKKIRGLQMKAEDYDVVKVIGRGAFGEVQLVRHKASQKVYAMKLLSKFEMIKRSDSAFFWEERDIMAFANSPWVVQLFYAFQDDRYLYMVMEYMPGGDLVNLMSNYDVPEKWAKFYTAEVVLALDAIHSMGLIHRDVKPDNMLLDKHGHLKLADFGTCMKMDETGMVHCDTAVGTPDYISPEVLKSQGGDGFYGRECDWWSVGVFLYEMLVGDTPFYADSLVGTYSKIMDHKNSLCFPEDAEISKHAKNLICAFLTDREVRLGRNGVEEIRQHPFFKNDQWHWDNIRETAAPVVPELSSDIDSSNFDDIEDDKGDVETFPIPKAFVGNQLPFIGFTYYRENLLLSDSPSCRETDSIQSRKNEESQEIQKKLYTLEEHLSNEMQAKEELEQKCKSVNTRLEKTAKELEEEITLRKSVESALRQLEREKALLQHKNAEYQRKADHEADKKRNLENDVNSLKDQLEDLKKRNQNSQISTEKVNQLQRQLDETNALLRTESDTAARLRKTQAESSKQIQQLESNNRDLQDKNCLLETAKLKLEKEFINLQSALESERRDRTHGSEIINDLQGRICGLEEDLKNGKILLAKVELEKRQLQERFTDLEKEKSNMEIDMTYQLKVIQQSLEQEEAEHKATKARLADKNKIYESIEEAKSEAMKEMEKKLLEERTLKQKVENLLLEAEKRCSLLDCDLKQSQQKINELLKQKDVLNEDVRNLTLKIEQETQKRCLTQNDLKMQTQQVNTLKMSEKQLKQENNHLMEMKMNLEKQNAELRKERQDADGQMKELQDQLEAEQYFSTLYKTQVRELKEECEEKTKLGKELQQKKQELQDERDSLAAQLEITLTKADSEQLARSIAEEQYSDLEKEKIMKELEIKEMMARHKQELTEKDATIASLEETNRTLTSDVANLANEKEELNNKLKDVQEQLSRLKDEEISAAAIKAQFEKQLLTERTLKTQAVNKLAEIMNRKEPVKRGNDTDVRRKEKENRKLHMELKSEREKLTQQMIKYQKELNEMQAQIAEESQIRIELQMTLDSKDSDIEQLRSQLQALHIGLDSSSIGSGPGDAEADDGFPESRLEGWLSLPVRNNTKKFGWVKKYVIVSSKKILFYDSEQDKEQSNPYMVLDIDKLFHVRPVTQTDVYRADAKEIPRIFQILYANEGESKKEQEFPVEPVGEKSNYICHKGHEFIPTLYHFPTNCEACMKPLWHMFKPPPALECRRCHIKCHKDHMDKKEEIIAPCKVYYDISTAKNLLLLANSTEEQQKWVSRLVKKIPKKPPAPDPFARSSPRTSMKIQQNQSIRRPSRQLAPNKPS

97 kinases [6] = target: T6, 97 kinases (Homo sapiens, UniProt P00519, E255K); conditions: read-out: %Ctrl ABL1(E255K)-phosphorylated
T6 construct: purchased Ambit Biosciences (scanEDGE / KINOMEscan) scanEDGE 97 kinase panel; host or cells: T7 phage in E. coli BL21-derived host; remaining kinases in HEK-293 cells

97 kinases [7] = target: T7, 97 kinases (Homo sapiens, UniProt P04626); conditions: read-out: %Ctrl ERBB2
T7 construct: purchased Ambit Biosciences (scanEDGE / KINOMEscan) scanEDGE 97 kinase panel; host or cells: T7 phage in E. coli BL21-derived host; remaining kinases in HEK-293 cells

97 kinases [8] = target: T8, 97 kinases (Homo sapiens, UniProt P06213); conditions: read-out: %Ctrl INSR
T8 construct: purchased Ambit Biosciences (scanEDGE / KINOMEscan) scanEDGE 97 kinase panel; host or cells: T7 phage in E. coli BL21-derived host; remaining kinases in HEK-293 cells

97 kinases [9] = target: T9, 97 kinases (Homo sapiens, UniProt P07949); conditions: read-out: %Ctrl RET
T9 construct: purchased Ambit Biosciences (scanEDGE / KINOMEscan) scanEDGE 97 kinase panel; host or cells: T7 phage in E. coli BL21-derived host; remaining kinases in HEK-293 cells

97 kinases [10] = target: T10, 97 kinases (Homo sapiens, UniProt P08069); conditions: read-out: %Ctrl IGF1R
T10 construct: purchased Ambit Biosciences (scanEDGE / KINOMEscan) scanEDGE 97 kinase panel; host or cells: T7 phage in E. coli BL21-derived host; remaining kinases in HEK-293 cells

97 kinases [11] = target: T11, 97 kinases (Homo sapiens, UniProt P08581); conditions: read-out: %Ctrl MET
T11 construct: purchased Ambit Biosciences (scanEDGE / KINOMEscan) scanEDGE 97 kinase panel; host or cells: T7 phage in E. coli BL21-derived host; remaining kinases in HEK-293 cells

97 kinases [12] = target: T12, 97 kinases (Homo sapiens, UniProt P09619); conditions: read-out: %Ctrl PDGFRB
T12 construct: purchased Ambit Biosciences (scanEDGE / KINOMEscan) scanEDGE 97 kinase panel; host or cells: T7 phage in E. coli BL21-derived host; remaining kinases in HEK-293 cells

97 kinases [13] = target: T13, 97 kinases (Homo sapiens, UniProt P10721, D816V); conditions: read-out: %Ctrl KIT(D816V)
T13 construct: purchased Ambit Biosciences (scanEDGE / KINOMEscan) scanEDGE 97 kinase panel; host or cells: T7 phage in E. coli BL21-derived host; remaining kinases in HEK-293 cells

97 kinases [14] = target: T14, 97 kinases (Homo sapiens, UniProt P10721, T670I/V559D); conditions: read-out: %Ctrl KIT(V559D,T670I)
T14 construct: purchased Ambit Biosciences (scanEDGE / KINOMEscan) scanEDGE 97 kinase panel; host or cells: T7 phage in E. coli BL21-derived host; remaining kinases in HEK-293 cells

97 kinases [15] = target: T15, 97 kinases (Homo sapiens, UniProt P15056); conditions: read-out: %Ctrl BRAF
T15 construct: purchased Ambit Biosciences (scanEDGE / KINOMEscan) scanEDGE 97 kinase panel; host or cells: T7 phage in E. coli BL21-derived host; remaining kinases in HEK-293 cells

97 kinases [16] = target: T16, 97 kinases (Homo sapiens, UniProt P22607); conditions: read-out: %Ctrl FGFR3
T16 construct: purchased Ambit Biosciences (scanEDGE / KINOMEscan) scanEDGE 97 kinase panel; host or cells: T7 phage in E. coli BL21-derived host; remaining kinases in HEK-293 cells

97 kinases [17] = target: T17, 97 kinases (Homo sapiens, UniProt P24941); conditions: read-out: %Ctrl CDK2
T17 construct: purchased Ambit Biosciences (scanEDGE / KINOMEscan) scanEDGE 97 kinase panel; host or cells: T7 phage in E. coli BL21-derived host; remaining kinases in HEK-293 cells

97 kinases [18] = target: T18, 97 kinases (Homo sapiens, UniProt P27448); conditions: read-out: %Ctrl MARK3
T18 construct: purchased Ambit Biosciences (scanEDGE / KINOMEscan) scanEDGE 97 kinase panel; host or cells: T7 phage in E. coli BL21-derived host; remaining kinases in HEK-293 cells

97 kinases [19] = target: T19, 97 kinases (Homo sapiens, UniProt P31749); conditions: read-out: %Ctrl AKT1
T19 construct: purchased Ambit Biosciences (scanEDGE / KINOMEscan) scanEDGE 97 kinase panel; host or cells: T7 phage in E. coli BL21-derived host; remaining kinases in HEK-293 cells
T19 sequence (P31749 whole entry): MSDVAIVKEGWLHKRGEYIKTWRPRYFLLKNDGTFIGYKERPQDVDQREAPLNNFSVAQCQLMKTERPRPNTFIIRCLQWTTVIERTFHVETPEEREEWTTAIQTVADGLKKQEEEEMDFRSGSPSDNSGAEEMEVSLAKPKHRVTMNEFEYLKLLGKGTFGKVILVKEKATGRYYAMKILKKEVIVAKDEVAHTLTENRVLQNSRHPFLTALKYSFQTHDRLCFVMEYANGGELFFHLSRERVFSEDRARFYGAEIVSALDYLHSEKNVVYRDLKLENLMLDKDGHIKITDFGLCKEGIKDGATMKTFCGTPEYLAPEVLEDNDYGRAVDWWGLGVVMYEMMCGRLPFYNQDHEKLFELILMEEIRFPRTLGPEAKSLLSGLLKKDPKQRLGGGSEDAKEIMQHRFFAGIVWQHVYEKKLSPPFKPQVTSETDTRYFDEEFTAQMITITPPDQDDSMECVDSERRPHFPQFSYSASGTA

97 kinases [20] = target: T20, 97 kinases (Homo sapiens, UniProt P36888); conditions: read-out: %Ctrl FLT3
T20 construct: purchased Ambit Biosciences (scanEDGE / KINOMEscan) scanEDGE 97 kinase panel; host or cells: T7 phage in E. coli BL21-derived host; remaining kinases in HEK-293 cells

97 kinases [21] = target: T21, 97 kinases (Homo sapiens, UniProt P36896); conditions: read-out: %Ctrl ACVR1B
T21 construct: purchased Ambit Biosciences (scanEDGE / KINOMEscan) scanEDGE 97 kinase panel; host or cells: T7 phage in E. coli BL21-derived host; remaining kinases in HEK-293 cells

97 kinases [22] = target: T22, 97 kinases (Homo sapiens, UniProt P36897); conditions: read-out: %Ctrl TGFBR1
T22 construct: purchased Ambit Biosciences (scanEDGE / KINOMEscan) scanEDGE 97 kinase panel; host or cells: T7 phage in E. coli BL21-derived host; remaining kinases in HEK-293 cells

97 kinases [23] = target: T23, 97 kinases (Homo sapiens, UniProt P42336); conditions: read-out: %Ctrl PIK3CA
T23 construct: purchased Ambit Biosciences (scanEDGE / KINOMEscan) scanEDGE 97 kinase panel; host or cells: T7 phage in E. coli BL21-derived host; remaining kinases in HEK-293 cells

97 kinases [24] = target: T24, 97 kinases (Homo sapiens, UniProt P45983); conditions: read-out: %Ctrl JNK1
T24 construct: purchased Ambit Biosciences (scanEDGE / KINOMEscan) scanEDGE 97 kinase panel; host or cells: T7 phage in E. coli BL21-derived host; remaining kinases in HEK-293 cells
T24 sequence (P45983 whole entry): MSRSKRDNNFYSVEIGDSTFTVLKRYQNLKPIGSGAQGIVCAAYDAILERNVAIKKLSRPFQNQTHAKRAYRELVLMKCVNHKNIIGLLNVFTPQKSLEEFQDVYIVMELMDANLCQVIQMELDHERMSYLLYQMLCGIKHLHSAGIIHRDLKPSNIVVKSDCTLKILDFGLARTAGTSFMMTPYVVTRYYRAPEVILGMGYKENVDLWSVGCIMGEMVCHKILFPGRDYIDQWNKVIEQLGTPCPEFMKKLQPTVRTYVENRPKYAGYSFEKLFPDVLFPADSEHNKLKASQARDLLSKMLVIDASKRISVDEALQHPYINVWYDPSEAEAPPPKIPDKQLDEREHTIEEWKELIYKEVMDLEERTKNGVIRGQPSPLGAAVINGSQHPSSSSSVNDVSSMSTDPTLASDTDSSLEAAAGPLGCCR

97 kinases [25] = target: T25, 97 kinases (Homo sapiens, UniProt P49841); conditions: read-out: %Ctrl GSK3B
T25 construct: purchased Ambit Biosciences (scanEDGE / KINOMEscan) scanEDGE 97 kinase panel; host or cells: T7 phage in E. coli BL21-derived host; remaining kinases in HEK-293 cells

97 kinases [26] = target: T26, 97 kinases (Homo sapiens, UniProt P50613); conditions: read-out: %Ctrl CDK7
T26 construct: purchased Ambit Biosciences (scanEDGE / KINOMEscan) scanEDGE 97 kinase panel; host or cells: T7 phage in E. coli BL21-derived host; remaining kinases in HEK-293 cells

97 kinases [27] = target: T27, 97 kinases (Homo sapiens, UniProt Q00536); conditions: read-out: %Ctrl PCTK1
T27 construct: purchased Ambit Biosciences (scanEDGE / KINOMEscan) scanEDGE 97 kinase panel; host or cells: T7 phage in E. coli BL21-derived host; remaining kinases in HEK-293 cells
T27 sequence (Q00536 whole entry): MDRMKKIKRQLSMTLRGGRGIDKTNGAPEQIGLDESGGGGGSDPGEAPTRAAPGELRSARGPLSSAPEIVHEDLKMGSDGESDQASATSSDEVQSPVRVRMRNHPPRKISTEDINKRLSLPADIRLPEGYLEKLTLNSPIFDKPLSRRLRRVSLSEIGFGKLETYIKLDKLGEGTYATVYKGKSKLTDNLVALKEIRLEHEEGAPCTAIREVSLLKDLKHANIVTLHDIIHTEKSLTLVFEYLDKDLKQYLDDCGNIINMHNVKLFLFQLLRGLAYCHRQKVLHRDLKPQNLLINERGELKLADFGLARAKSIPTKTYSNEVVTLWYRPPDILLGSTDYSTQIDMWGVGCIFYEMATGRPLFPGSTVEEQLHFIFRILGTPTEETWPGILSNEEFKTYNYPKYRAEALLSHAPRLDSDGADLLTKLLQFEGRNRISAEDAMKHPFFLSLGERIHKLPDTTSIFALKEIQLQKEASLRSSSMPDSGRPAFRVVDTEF

97 kinases [28] = target: T28, 97 kinases (Homo sapiens, UniProt Q02156); conditions: read-out: %Ctrl PRKCE
T28 construct: purchased Ambit Biosciences (scanEDGE / KINOMEscan) scanEDGE 97 kinase panel; host or cells: T7 phage in E. coli BL21-derived host; remaining kinases in HEK-293 cells

97 kinases [29] = target: T29, 97 kinases (Homo sapiens, UniProt Q02763); conditions: read-out: %Ctrl TIE2
T29 construct: purchased Ambit Biosciences (scanEDGE / KINOMEscan) scanEDGE 97 kinase panel; host or cells: T7 phage in E. coli BL21-derived host; remaining kinases in HEK-293 cells
T29 sequence (Q02763 23-1124): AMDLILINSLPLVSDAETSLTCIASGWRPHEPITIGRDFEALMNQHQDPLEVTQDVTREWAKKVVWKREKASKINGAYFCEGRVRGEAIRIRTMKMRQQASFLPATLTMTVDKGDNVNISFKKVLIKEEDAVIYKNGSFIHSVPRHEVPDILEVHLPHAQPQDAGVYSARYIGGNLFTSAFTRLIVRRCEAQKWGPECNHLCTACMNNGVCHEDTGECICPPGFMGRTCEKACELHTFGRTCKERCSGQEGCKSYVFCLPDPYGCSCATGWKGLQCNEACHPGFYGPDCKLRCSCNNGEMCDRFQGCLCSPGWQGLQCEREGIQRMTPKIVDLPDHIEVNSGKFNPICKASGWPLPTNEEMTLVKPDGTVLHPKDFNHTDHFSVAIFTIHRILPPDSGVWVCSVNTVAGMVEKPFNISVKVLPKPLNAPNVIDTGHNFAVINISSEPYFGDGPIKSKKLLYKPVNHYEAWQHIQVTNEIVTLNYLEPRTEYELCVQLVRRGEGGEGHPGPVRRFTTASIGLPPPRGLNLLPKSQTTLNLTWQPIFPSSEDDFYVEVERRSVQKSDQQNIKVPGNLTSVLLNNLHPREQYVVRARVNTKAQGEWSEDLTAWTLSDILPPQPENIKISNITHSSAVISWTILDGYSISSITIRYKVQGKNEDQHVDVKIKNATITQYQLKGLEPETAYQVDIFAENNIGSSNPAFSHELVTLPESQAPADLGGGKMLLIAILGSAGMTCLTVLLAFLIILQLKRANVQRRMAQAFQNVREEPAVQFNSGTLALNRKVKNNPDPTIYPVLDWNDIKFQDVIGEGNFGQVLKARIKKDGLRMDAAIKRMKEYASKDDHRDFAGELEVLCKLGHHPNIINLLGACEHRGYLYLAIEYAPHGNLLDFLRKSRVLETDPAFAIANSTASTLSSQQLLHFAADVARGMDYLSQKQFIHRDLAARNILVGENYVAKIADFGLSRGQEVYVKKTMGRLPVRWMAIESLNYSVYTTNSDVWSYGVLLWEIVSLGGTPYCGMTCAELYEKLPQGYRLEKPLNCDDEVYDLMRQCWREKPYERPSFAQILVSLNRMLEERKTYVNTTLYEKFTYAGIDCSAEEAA

97 kinases [30] = target: T30, 97 kinases (Homo sapiens, UniProt Q06187); conditions: read-out: %Ctrl BTK
T30 construct: purchased Ambit Biosciences (scanEDGE / KINOMEscan) scanEDGE 97 kinase panel; host or cells: T7 phage in E. coli BL21-derived host; remaining kinases in HEK-293 cells

97 kinases [31] = target: T31, 97 kinases (Homo sapiens, UniProt Q13153); conditions: read-out: %Ctrl PAK1
T31 construct: purchased Ambit Biosciences (scanEDGE / KINOMEscan) scanEDGE 97 kinase panel; host or cells: T7 phage in E. coli BL21-derived host; remaining kinases in HEK-293 cells

97 kinases [32] = target: T32, 97 kinases (Homo sapiens, UniProt Q15831); conditions: read-out: %Ctrl LKB1
T32 construct: purchased Ambit Biosciences (scanEDGE / KINOMEscan) scanEDGE 97 kinase panel; host or cells: T7 phage in E. coli BL21-derived host; remaining kinases in HEK-293 cells
T32 sequence (Q15831 whole entry): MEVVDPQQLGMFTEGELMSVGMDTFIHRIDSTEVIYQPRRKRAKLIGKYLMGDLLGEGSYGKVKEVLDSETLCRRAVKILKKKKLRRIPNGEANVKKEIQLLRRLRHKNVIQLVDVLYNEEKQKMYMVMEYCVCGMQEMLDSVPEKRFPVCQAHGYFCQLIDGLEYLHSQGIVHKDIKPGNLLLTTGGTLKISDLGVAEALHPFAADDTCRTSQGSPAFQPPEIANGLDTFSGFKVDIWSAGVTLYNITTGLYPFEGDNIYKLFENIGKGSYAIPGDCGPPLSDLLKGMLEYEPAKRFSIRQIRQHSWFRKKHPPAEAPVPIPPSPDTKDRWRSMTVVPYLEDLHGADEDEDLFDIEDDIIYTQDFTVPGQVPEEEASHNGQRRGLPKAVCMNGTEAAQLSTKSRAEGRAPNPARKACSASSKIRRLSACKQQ

97 kinases [33] = target: T33, 97 kinases (Homo sapiens, UniProt Q16539); conditions: read-out: %Ctrl p38-alpha
T33 construct: purchased Ambit Biosciences (scanEDGE / KINOMEscan) scanEDGE 97 kinase panel; host or cells: T7 phage in E. coli BL21-derived host; remaining kinases in HEK-293 cells

97 kinases [34] = target: T34, 97 kinases (Homo sapiens, UniProt Q86UX6); conditions: read-out: %Ctrl YANK3
T34 construct: purchased Ambit Biosciences (scanEDGE / KINOMEscan) scanEDGE 97 kinase panel; host or cells: T7 phage in E. coli BL21-derived host; remaining kinases in HEK-293 cells
T34 sequence (Q86UX6 whole entry): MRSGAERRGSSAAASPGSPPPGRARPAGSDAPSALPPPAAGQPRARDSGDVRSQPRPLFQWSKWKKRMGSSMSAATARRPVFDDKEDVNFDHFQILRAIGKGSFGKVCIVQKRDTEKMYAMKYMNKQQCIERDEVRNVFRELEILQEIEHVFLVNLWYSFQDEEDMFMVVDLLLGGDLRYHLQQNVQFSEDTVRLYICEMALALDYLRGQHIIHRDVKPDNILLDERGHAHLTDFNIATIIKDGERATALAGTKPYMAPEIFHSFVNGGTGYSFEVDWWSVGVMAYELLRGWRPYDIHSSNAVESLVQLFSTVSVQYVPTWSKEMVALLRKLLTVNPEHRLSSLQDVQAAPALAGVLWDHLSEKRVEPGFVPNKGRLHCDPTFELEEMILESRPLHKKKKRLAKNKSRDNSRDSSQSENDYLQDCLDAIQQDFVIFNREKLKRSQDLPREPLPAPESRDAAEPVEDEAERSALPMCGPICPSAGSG

97 kinases [35] = target: T35, 97 kinases (Homo sapiens, UniProt Q9BVS4); conditions: read-out: %Ctrl RIOK2
T35 construct: purchased Ambit Biosciences (scanEDGE / KINOMEscan) scanEDGE 97 kinase panel; host or cells: T7 phage in E. coli BL21-derived host; remaining kinases in HEK-293 cells

97 kinases [36] = target: T36, 97 kinases (Homo sapiens, UniProt Q9HBH9); conditions: read-out: %Ctrl MKNK2
T36 construct: purchased Ambit Biosciences (scanEDGE / KINOMEscan) scanEDGE 97 kinase panel; host or cells: T7 phage in E. coli BL21-derived host; remaining kinases in HEK-293 cells

97 kinases [37] = target: T37, 97 kinases (Homo sapiens, UniProt Q9P1W9); conditions: read-out: %Ctrl PIM2
T37 construct: purchased Ambit Biosciences (scanEDGE / KINOMEscan) scanEDGE 97 kinase panel; host or cells: T7 phage in E. coli BL21-derived host; remaining kinases in HEK-293 cells

97 kinases [38] = target: T38, 97 kinases (Homo sapiens, UniProt Q9UPE1); conditions: read-out: %Ctrl SRPK3
T38 construct: purchased Ambit Biosciences (scanEDGE / KINOMEscan) scanEDGE 97 kinase panel; host or cells: T7 phage in E. coli BL21-derived host; remaining kinases in HEK-293 cells

In the case of `CC(C)(C)CNCCn1c(Sc2cc3c(cc2I)OCO3)nc2c(N)ncnc21` [Compound 85], the remaining binding at 10 µM (97 kinases [1]) is reported as 89%, the remaining binding at 10 µM (97 kinases [2]) is reported as 78% and the remaining binding at 10 µM (97 kinases [3]) is reported as 77%. It also gave a remaining binding at 10 µM (97 kinases [4]) of 100%, a remaining binding at 10 µM (97 kinases [5]) of 97% and a remaining binding at 10 µM (97 kinases [6]) of 80%. The remaining binding at 10 µM (97 kinases [7]) was 100%, the remaining binding at 10 µM (97 kinases [8]) was 92% and the remaining binding at 10 µM (97 kinases [9]) was 100%. The remaining binding at 10 µM (97 kinases [10]) was 100%, the remaining binding at 10 µM (97 kinases [11]) was 100% and the remaining binding at 10 µM (97 kinases [12]) was 98%. For the same compound, the remaining binding at 10 µM (97 kinases [13]) was 93%, the remaining binding at 10 µM (97 kinases [14]) was 96% and the remaining binding at 10 µM (97 kinases [15]) was 100%. It also gave a remaining binding at 10 µM (97 kinases [16]) of 95%, a remaining binding at 10 µM (97 kinases [17]) of 98% and a remaining binding at 10 µM (97 kinases [18]) of 100%. It also gave a remaining binding at 10 µM (97 kinases [19]) of 93%, a remaining binding at 10 µM (97 kinases [20]) of 100% and a remaining binding at 10 µM (97 kinases [21]) of 83%. For the same compound, the remaining binding at 10 µM (97 kinases [22]) was 63%, the remaining binding at 10 µM (97 kinases [23]) was 87% and the remaining binding at 10 µM (97 kinases [24]) was 96%. The remaining binding at 10 µM (97 kinases [25]) was 88%, the remaining binding at 10 µM (97 kinases [26]) was 79% and the remaining binding at 10 µM (97 kinases [27]) was 100%. It also gave a remaining binding at 10 µM (97 kinases [28]) of 100%, a remaining binding at 10 µM (97 kinases [29]) of 100% and a remaining binding at 10 µM (97 kinases [30]) of 100%. The remaining binding at 10 µM (97 kinases [31]) was 92%, the remaining binding at 10 µM (97 kinases [32]) was 81% and the remaining binding at 10 µM (97 kinases [33]) was 100%. For the same compound, the remaining binding at 10 µM (97 kinases [34]) was 95%, the remaining binding at 10 µM (97 kinases [35]) was 94% and the remaining binding at 10 µM (97 kinases [36]) was 93%. The remaining binding at 10 µM (97 kinases [37]) was 81% and the remaining binding at 10 µM (97 kinases [38]) was 100%.
